System: 883617-216-R-J1-PDC tumor spheroids, viability
Assay: Anticancer human tumor 883617-216-R-J1-PDC patient-derived bladder carcinoma cell line growth inhibition [PI3K]
Conditions: spheroids with HUVEC and MSC; for IC50: curve of first compound; for viability, T/C: stronger effect = lower value
Procedure, shortened: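 High-throughput combination screen: PI3K inhibitors crossed with targeted small molecules on complex spheroids of tumor cells, HUVEC and MSCs at 37 degrees C, 5% CO2. Top concentration was at or near clinical Cmax (otherwise 10 microM), with half-log decrements.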

[1] = second compound 0.00316 µM, first compound 0.0316 µM
[2] = second compound 0.00316 µM, first compound 0.1 µM
[3] = second compound 0.00316 µM, first compound 0.316 µM
[4] = second compound 0.00316 µM, first compound 1 µM
[5] = second compound 0.00316 µM, first compound 3.16 µM
[6] = second compound 0.00316 µM, first compound 10 µM
[7] = second compound 0.01 µM, first compound 0.0316 µM
[8] = second compound 0.01 µM, first compound 0.1 µM
[9] = second compound 0.01 µM, first compound 0.316 µM
[10] = second compound 0.01 µM, first compound 1 µM
[11] = second compound 0.01 µM, first compound 3.16 µM
[12] = second compound 0.01 µM, first compound 10 µM
[13] = second compound 0.0316 µM, first compound 0.0316 µM
[14] = second compound 0.0316 µM, first compound 0.1 µM
[15] = second compound 0.0316 µM, first compound 0.316 µM
[16] = second compound 0.0316 µM, first compound 1 µM
[17] = second compound 0.0316 µM, first compound 3.16 µM
[18] = second compound 0.0316 µM, first compound 10 µM
[19] = second compound 0.1 µM, first compound 0.0316 µM
[20] = second compound 0.1 µM, first compound 0.1 µM
[21] = second compound 0.1 µM, first compound 0.316 µM
[22] = second compound 0.1 µM, first compound 1 µM
[23] = second compound 0.1 µM, first compound 3.16 µM
[24] = second compound 0.1 µM, first compound 10 µM
[25] = second compound 0.316 µM, first compound 0.0316 µM
[26] = second compound 0.316 µM, first compound 0.1 µM
[27] = second compound 0.316 µM, first compound 0.316 µM
[28] = second compound 0.316 µM, first compound 1 µM
[29] = second compound 0.316 µM, first compound 3.16 µM
[30] = second compound 0.316 µM, first compound 10 µM
[31] = second compound 1 µM, first compound 0.0316 µM
[32] = second compound 1 µM, first compound 0.1 µM
[33] = second compound 1 µM, first compound 0.316 µM
[34] = second compound 1 µM, first compound 1 µM
[35] = second compound 1 µM, first compound 3.16 µM
[36] = second compound 1 µM, first compound 10 µM
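Further: spheroids exposed to agents for 7 days before the viability read.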

SMILES: CC1(C)CCC(CN2CCN(c3ccc(C(=O)NS(=O)(=O)c4ccc(NCC5CCOCC5)c([N+](=O)[O-])c4)c(Oc4cnc5[nH]ccc5c4)c3)CC2)=C(c2ccc(Cl)cc2)C1 + COc1c(OCCCN2CCOCC2)ccc2c3n(c(=NC(=O)c4cnc(N)nc4)nc12)CCN3
- IC50 (second compound 0.00316 µM): > 10000 nM
- IC50 (second compound 0.01 µM): > 10000 nM
- IC50 (second compound 0.0316 µM): < 31.6 nM
- IC50 (second compound 0.1 µM): < 31.6 nM
- IC50 (second compound 0.316 µM): < 31.6 nM
- IC50 (second compound 1 µM): < 31.6 nM
- viability, T/C [1]: 86.9%
- viability, T/C [2]: 84.3%
- viability, T/C [3]: 77.5%
- viability, T/C [4]: 83.7%
- viability, T/C [5]: 82.7%
- viability, T/C [6]: 110%
- viability, T/C [7]: 68%
- viability, T/C [8]: 67.9%
- viability, T/C [9]: 66.5%
- viability, T/C [10]: 68.5%
- viability, T/C [11]: 66.1%
- viability, T/C [12]: 58.2%
- viability, T/C [13]: 32.3%
- viability, T/C [14]: 35.8%
- viability, T/C [15]: 40.5%
- viability, T/C [16]: 39.1%
- viability, T/C [17]: 35.3%
- viability, T/C [18]: 35.5%
- viability, T/C [19]: 27.5%
- viability, T/C [20]: 15.1%
- viability, T/C [21]: 17%
- viability, T/C [22]: 17.8%
- viability, T/C [23]: 15.2%
- viability, T/C [24]: 13.1%
- viability, T/C [25]: 6.5%
- viability, T/C [26]: 4.66%
- viability, T/C [27]: 5.31%
- viability, T/C [28]: 5.04%
- viability, T/C [29]: 4.63%
- viability, T/C [30]: 4.02%
- viability, T/C [31]: 3.29%
- viability, T/C [32]: 2.86%
- viability, T/C [33]: 2.77%
- viability, T/C [34]: 3.15%
- viability, T/C [35]: 2.53%
- viability, T/C [36]: 2.82%

SMILES: C=CC(=O)N1CCN(c2nc(=O)n(-c3c(C)ccnc3C(C)C)c3nc(-c4c(O)cccc4F)c(F)cc23)C(C)C1 (configuration not stated)
- viability, T/C (compound 0.0316 µM): 61.8% [middle of 4 runs]
- viability, T/C (compound 0.1 µM): 48% [middle of 4 runs]
- viability, T/C (compound 0.316 µM): 51.2% [middle of 4 runs]
- viability, T/C (compound 1 µM): 58.9% [middle of 4 runs]
- viability, T/C (compound 3.16 µM): 74.7% [middle of 4 runs]
- viability, T/C (compound 10 µM): 66.4% [middle of 4 runs]

SMILES: Cn1nccc1Nc1nccc(-c2ccn(C(CO)c3ccc(Cl)c(F)c3)c(=O)c2)n1 (configuration not stated) + CC(Nc1ccc2c(c1)OCCn1cc(N3C(=O)OCC3C(F)F)nc1-2)C(N)=O
- IC50 (second compound 0.00316 µM): 9310 nM
- IC50 (second compound 0.01 µM): > 10000 nM
- IC50 (second compound 0.0316 µM): 888 nM
- IC50 (second compound 0.1 µM): < 31.6 nM
- IC50 (second compound 0.316 µM): < 31.6 nM
- IC50 (second compound 1 µM): < 31.6 nM
- viability, T/C [1]: 83.2%
- viability, T/C [2]: 67.5%
- viability, T/C [3]: 80.3%
- viability, T/C [4]: 75.6%
- viability, T/C [5]: 80.1%
- viability, T/C [6]: 48.1%
- viability, T/C [7]: 85.6%
- viability, T/C [8]: 74.7%
- viability, T/C [9]: 77.3%
- viability, T/C [10]: 64.2%
- viability, T/C [11]: 58.2%
- viability, T/C [12]: 50.1%
- viability, T/C [13]: 66.5%
- viability, T/C [14]: 65.9%
- viability, T/C [15]: 67.1%
- viability, T/C [16]: 48.1%
- viability, T/C [17]: 35.9%
- viability, T/C [18]: 34.2%
- viability, T/C [19]: 44%
- viability, T/C [20]: 45.1%
- viability, T/C [21]: 38.1%
- viability, T/C [22]: 37.1%
- viability, T/C [23]: 27.6%
- viability, T/C [24]: 22.4%
- viability, T/C [25]: 25.1%
- viability, T/C [26]: 22.8%
- viability, T/C [27]: 17.2%
- viability, T/C [28]: 16.2%
- viability, T/C [29]: 15.2%
- viability, T/C [30]: 9.06%
- viability, T/C [31]: 14.9%
- viability, T/C [32]: 13.6%
- viability, T/C [33]: 12%
- viability, T/C [34]: 11%
- viability, T/C [35]: 9.01%
- viability, T/C [36]: 6.11%

SMILES: C=CC(=O)N1CCN(c2nc(=O)n(-c3c(C)ccnc3C(C)C)c3nc(-c4c(O)cccc4F)c(F)cc23)C(C)C1 (configuration not stated) + COc1c(OCCCN2CCOCC2)ccc2c3n(c(=NC(=O)c4cnc(N)nc4)nc12)CCN3
- IC50 (second compound 0.00316 µM): < 31.6 nM
- IC50 (second compound 0.01 µM): < 31.6 nM
- IC50 (second compound 0.0316 µM): < 31.6 nM
- IC50 (second compound 0.1 µM): < 31.6 nM
- IC50 (second compound 0.316 µM): < 31.6 nM
- IC50 (second compound 1 µM): < 31.6 nM
- viability, T/C [1]: 54.8%
- viability, T/C [2]: 40.3%
- viability, T/C [3]: 44%
- viability, T/C [4]: 46.3%
- viability, T/C [5]: 52.3%
- viability, T/C [6]: 53.9%
- viability, T/C [7]: 46%
- viability, T/C [8]: 34.9%
- viability, T/C [9]: 33.4%
- viability, T/C [10]: 41.1%
- viability, T/C [11]: 43.5%
- viability, T/C [12]: 38.7%
- viability, T/C [13]: 21.4%
- viability, T/C [14]: 19.8%
- viability, T/C [15]: 16.6%
- viability, T/C [16]: 22.3%
- viability, T/C [17]: 24.1%
- viability, T/C [18]: 24.5%
- viability, T/C [19]: 8.54%
- viability, T/C [20]: 3.86%
- viability, T/C [21]: 6.45%
- viability, T/C [22]: 8.64%
- viability, T/C [23]: 10.2%
- viability, T/C [24]: 9.28%
- viability, T/C [25]: 1.88%
- viability, T/C [26]: 1.7%
- viability, T/C [27]: 1.81%
- viability, T/C [28]: 2.12%
- viability, T/C [29]: 2.85%
- viability, T/C [30]: 2.77%
- viability, T/C [31]: 1.07%
- viability, T/C [32]: 0.62%
- viability, T/C [33]: 0.69%
- viability, T/C [34]: 0.95%
- viability, T/C [35]: 1.99%
- viability, T/C [36]: 0.95%

— PubChem BioAssay AID1963973 (Molecular Pharmacology Branch, DTP, NCI, 2024)
